Reference: the NIST ThermoML archive (doi:10.1021/je400149j)

Key:
[1] = Crystal; Derived from relative static permittivity measurements of the liquid and solid states
[2] = relative permittivity at zero frequency (dimensionless); conditions: 101 kPa, Liquid, impedance/gain phase analyzer
[3] = relative permittivity at zero frequency (dimensionless); xn = mol fraction of the nth substance listed; conditions: 101 kPa, Liquid, impedance/gain phase analyzer, x2 = 0

C[S+](C)[O-] [dimethyl sulfoxide]
Conditions | Normal melting temperature [°C]
[1] | 18.1

[2]
Conditions | relative permittivity at zero frequency
291.15 K | 47.15
293.15 K | 47.09
295.15 K | 46.84
297.15 K | 46.64
299.15 K | 46.39
301.15 K | 46.18
303.15 K | 45.94
305.15 K | 45.63
307.15 K | 45.39
309.15 K | 45.14
311.15 K | 44.88
313.15 K | 44.64
315.15 K | 44.34
317.15 K | 44.11
319.15 K | 43.87
321.15 K | 43.58
323.15 K | 43.31
325.15 K | 43.07
327.15 K | 42.78
329.15 K | 42.56
331.15 K | 42.27
333.15 K | 42

O [water]
Conditions | Normal melting temperature [°C]
[1] | 0.1

[2]
Conditions | relative permittivity at zero frequency
273.15 K | 87
275.15 K | 86.36
277.15 K | 85.67
279.15 K | 84.84
281.15 K | 84.25
283.15 K | 83.37
285.15 K | 82.73
287.15 K | 82.02
289.15 K | 81.33
291.15 K | 80.65
293.15 K | 79.98
295.15 K | 79.32
297.15 K | 78.42
299.15 K | 77.85
301.15 K | 77.29
303.15 K | 76.61
305.15 K | 75.95
307.15 K | 75.3
309.15 K | 74.65
311.15 K | 73.97
313.15 K | 73.29
315.15 K | 72.68
317.15 K | 72.09
319.15 K | 71.44
321.15 K | 70.76
323.15 K | 70.14
325.15 K | 69.54
327.15 K | 68.94
329.15 K | 68.3
331.15 K | 67.68
333.15 K | 67.07

O [water] + C[S+](C)[O-]
[3]
Conditions | relative permittivity at zero frequency
273.15 K | 87
275.15 K | 86.36
277.15 K | 85.67
279.15 K | 84.84
281.15 K | 84.25
283.15 K | 83.37
285.15 K | 82.73
287.15 K | 82.02
289.15 K | 81.33
291.15 K | 80.65
293.15 K | 79.98
295.15 K | 79.32
297.15 K | 78.42
299.15 K | 77.85
301.15 K | 77.29
303.15 K | 76.61
305.15 K | 75.95
307.15 K | 75.3
309.15 K | 74.65
311.15 K | 73.97
313.15 K | 73.29
315.15 K | 72.68
317.15 K | 72.09
319.15 K | 71.44
321.15 K | 70.76
323.15 K | 70.14
325.15 K | 69.54
327.15 K | 68.94
329.15 K | 68.3
331.15 K | 67.68
333.15 K | 67.07
